The results in this text go back to patent US20070191324A1, “Methods for treatment or prophylaxis of aldosterone-mediated pathogenic effects in a subject using an epoxy-steroidal aldosterone antagonist” (priority 1999, published 2007).

In data set [1] the test system is saline-drinking SHRSP. As to the kind of experiment: Stroke and cerebrovascular damage in saline-drinking SHRSP (Example A-7). The data set is classed as in vivo, rat. The following applies: 100 mg/kg/day, up to 18.5 weeks of age. An excerpt:
Fifteen male, 9 weeks of age, saline-drinking SHRSP were included in the experiment. […] A-12). […] Using a semi-quantitative scoring system from 0-4 for cerebral injury (FIG.

For data set [2], the system named is saline-drinking SHRSP. As to the kind of experiment: Renal pathologic changes in saline-drinking SHRSP, Protocol 1 (Example A-8). The data set is classed as in vivo, rat (SHRSP/A3N). On the procedure:
Animals. Studies were conducted in accordance with institutional guidelines using male […] (generations […]-78), n=37, from our local colony. These animals were bred from NIH stock, derived from the […] substrain described originally by Okamoto and coworkers (Okamoto K et al. Circ. […] All animals were housed in a room maintained on a 12:12-h light:dark-cycle and an ambient temperature of 22±1° C. in the Animal Care Facility at New York Medical College. Rats were weaned at 4 weeks of age and allowed free access to Purina Lab Chow 5001 (Ralston Purina, St. Louis, Mo.) and tap water until the initiation of experimental protocols. […] Animals were examined each day for neurologic signs of stroke. Systolic arterial pressure and heart rate were measured each week in awake rats. […] Trunk blood was collected into chilled EDTA tubes following rapid decapitation of the animals between 10:00 am and 12:00 pm. Blood was stored at -20° C. for later measurement of plasma aldosterone levels. The kidneys were rapidly removed, weighed, and then preserved in fixative for later histologic examination. Assays and Analyses. Systolic blood pressure and heart rate of awake animals were measured by tail-cuff plethysmography using a Natsume KN-210 manometer and tachometer (Peninsula Laboratories Inc., Belmont, Calif.). Rats were warmed at 37° C. for 10 min and allowed to rest quietly in a Lucite chamber before measurement of blood pressure. Measurements of urine volume were made gravimetrically. Urinary protein concentration was determined by the sulfosalicylic acid turbidity method. Plasma aldosterone was measured by radioimmunoassay using ^125I-aldosterone as a tracer (Coat-a Count Aldosterone, Diagnostic Products Co., Los Angeles, Calif.). Histology. […] Coronal sections (2-3 μm) were stained with hematoxylin and eosin and examined by light microscopy in a blinded fashion as previously described ([…] et al. […] Glomerular damage was categorized as ischemic or thrombotic. Ischemic lesions were defined as retraction of glomerular capillary tufts with or without appreciable mesangiolysis. […] The presence of casts and tubular (ischemic) retraction and simplification was assessed semiquantitatively. […] Significant effects with respect to treatment and time were determined by two-way analysis of variance. Data with only one grouping variable were analyzed statistically by Student's unpaired t tests. […] Data were analyzed using version 2.01 of the GraphPad Prism statistical software package (GraphPad Software Inc., San Diego, Calif.). […]

For data set [3], the system named is patients with mild-to-moderate hypertension. The experiment in a line: Eplerenone versus enalapril in essential hypertension, 12-month titration-to-effect (Example D-3). It counts as in vivo, human. On the procedure:
The study design is illustrated in FIG. D-6. Patients with mild-to-moderate hypertension (diastolic blood pressure [DBP]≧95 mmHg and <110 mmHg) were randomized to receive initially EPL 50 mg QD (n=253) or ENAL 10 mg QD (n=246). If DBP ≧90 mmHg at Weeks 4, 8, 12, 16, or 20, the dose of study medication was up-titrated incrementally to EPL 100 mg and 200 mg QD, or ENAL 20 mg and 40 mg QD. […] At 24 wks and 12 months, changes in BP, RAAS hormone profile, urinary albumin excretion (urinary albumin: creatinine ratio [UACR]), laboratory tests, safety, and adverse events (AEs) were assessed.

Where [4] appears, read: Week 24, EPL 50-200 mg QD, ENAL 10-40 mg QD titrated.

As to `COC(=O)[C@@H]1CC2=CC(=O)CC[C@]2(C)[C@@]23O[C@@H]2C[C@@]2(C)[C@@H](CC[C@@]24CCC(=O)O4)[C@H]13` [Eplerenone, Pregn-4-ene-7,21-dicarboxylic acid, 9,11-epoxy-17-hydroxy-3-oxo-, γ-lactone, methyl ester, (7α, 11α, 17β)-], the stroke signs entry in data set [1] was “no signs of stroke”. Besides, the “Glomerular damage, Total” value in data set [2] (100 mg/kg/d by gavage, 8.4 to 13.1 weeks of age) is listed as “only rare instances of ischemic or thrombotic glomeruli”. Also, in data set [2] (100 mg/kg/d, 5 weeks), the “plasma concentration of aldosterone” value stood at 315 ± 35 pg/mL; the signs of stroke result is on record as “none of eplerenone-treated SHRSP showed evidence of stroke”; the “tubules with ischemic retraction and simplification” value is listed as 0.5±0.2%. In addition, in data set [3] (12-month study), the patients experiencing coughing is 2.4%, the patients experiencing hyperglycemia turned out to be 0.0% and the “patients experiencing urinary tract infections (UTI)” value is 0.4%. In data set [3] (12 months), this compound displayed a DBP change of −13.3 mmHg and an SBP change of −16.5 mmHg. In data set [3] (setting [4]), this compound returned a DBP change of −11.2 mmHg and an SBP change of −14.5 mmHg. In data set [3] (Week 24, patients with baseline UACR ≧30 mg/g), the “reduction in UACR” value is −61.5%. Besides, the safety and tolerability entry in data set [3] (in vivo) was “safe and well tolerated”.
